From patent US10874103B2, “Antibacterial composition comprising an acetal or a long-chain alkyl hexitane ether” (TEREOS STARCH & SWEETENERS BELGIUM, priority 2014, dated 2020)
Values after ≈ are worked out from the molar mass of the structure shown.

What was measured:
[1] = test system: E. faecalis (ATCC® 29212™); assay: MIC, 96-well microplate microdilution (Example 4); type: cell-based; settings: 18 h at 37° C.; for MIC: Enterococcus faecalis, ATCC29212, Mueller-Hinton medium, read-out: Minimum inhibitory concentration (MIC) E. faecalis
Protocol: (§1) The bacteriostatic properties of the derivatives are evaluated by measuring their minimum inhibitory concentration (MIC) on the bacteria tested. Such a measurement is made using the 96-well microplate microdilution method according to the conditions defined below.
(§2) The minimum inhibitory concentrations (MIC) are tested on Gram-positive bacterial strains according to the recommendations of the “Clinical Laboratory Standards Institute” (Clinical-Laboratory-Standards-Institute, 6th ed. Approved standard M100-S17. CLSI, Wayne, Pa., 2007).
(§3) The Gram-positive bacteria studied are as follows: L. monocytogenes (CIP 103575), E. faecalis (ATCC® 29212™) and S. aureus (ATCC® 292213™).
(§4) The cultures studied, freshly isolated (after incubation on a blood agar at 37° C. for 18 h), are taken up in sterile water (10 mL) until a 0.5 McFarland (Mc) suspension i.e. 1 to 2×10^8 CFU (bacteria)/cm^3 is obtained. The bacterial suspension was then diluted to obtain a final concentration of 5×10^5 CFU/cm^3.
(§5) Each well contains an identical quantity of Mueller-Hinton medium (a rich medium for bacterial culture) and bacteria with final 5×10^5 CFU/cm^3.
(§6) The test compounds of interest are solubilized in 2.5% m of ethanol before being diluted to different concentrations two by two.
(§7) On the multiwell plate, a first series has been planned comprising the culture medium without the test compound of interest. It corresponds to the growth control (control well). These controls serve as reference for comparing bacterial growth with that of the subsequent wells comprising different concentrations of the test compound of interest. The second series of wells comprises the mother solution for the test compound of interest for a concentration in the wells of 4 mM. Each series of wells was diluted two by two until the last series for a final concentration of 0.003 mM. Each concentration is duplicated in the same plate. The plate is incubated for 18 h at 37° C. […] If there is antibacterial activity, the bacterial growth is inhibited, which means that no turbidity or bacterial residue is present.
(§8) Tests have been conducted on Gram-positive bacteria with sorbitan derivatives. […] After sterilization the solutions are diluted in water. The results obtained for antimicrobial tests on the 3 bacterial strains L. monocytogenes (CIP 103575), E. faecalis (ATCC® 29212™) and S. aureus (ATCC® 292213™) are summarized in Table 1.

[2] = test system: S. aureus (ATCC® 292213™); assay: MIC, 96-well microplate microdilution (Example 4); type: cell-based; settings: for Minimum inhibitory concentration (MIC) S. aureus / MIC: ATCC 292213, Mueller-Hinton medium, 18 h at 37° C.; for MIC: Staphylococcus aureus, ATCC292213, read-out: Minimum inhibitory concentration (MIC) S. aureus
Protocol: as §1, §2, §3, §4, §5, §6, §7, §8

[3] = test system: L. monocytogenes (CIP 103575); assay: MIC, 96-well microplate microdilution (Example 4); type: cell-based; settings: 18 h at 37° C.; for Minimum inhibitory concentration (MIC) L. monocytogenes: Mueller-Hinton medium; for MIC: Listeria monocytogenes, CIP103575, Mueller-Hinton medium, read-out: Minimum inhibitory concentration (MIC) L. monocytogenes
Protocol: as §1, §2, §3, §4, §5, §6, §7, §8

[4] = test system: E. faecalis (ATCC® 29212™); assay: MBC, bacterial count from clear wells reseeded on agar (Example 5); type: cell-based
Protocol: (§9) To determine whether the agents tested are bactericidal, the minimum bactericidal concentration (MBC) is determined. The MBC corresponds to the concentration leaving a number of bacterial survivors of <4 log. For this, a bacterial count is run from clear wells or without bacterial residue (C≤MIC). To do this, a dilution to 1/100 was conducted with the two wells with the same concentration before seeding on a blood agar using the Spiral technique. After 24 h of incubation at 37° C., the visual count allowed determination of the minimum concentration from which there is no bacterial growth.
(§10) To determine the bactericidal effect of compounds presenting bacteriostatic properties, the wells no longer presenting turbidity were reseeded on agar.

[5] = test system: L. monocytogenes (CIP 103575); assay: as above; type: cell-based
Protocol: as §9, §10

[6] = Critical micelle concentration (surfactant properties, Example 6); type: physicochemical
Description: The physical, chemical and antimicrobial properties for the best products synthesized have been tested. These analyses show the different surfactant profiles, and the minimum inhibitory concentrations (MIC) for each compound on Gram-positive bacteria. The best surfactant and antimicrobial results are compared in Table 3.

[7] = test system: L. monocytogenes (CIP 103575), E. faecalis (ATCC® 29212™) and S. aureus (ATCC® 292213™); assay: MIC microdilution, statements for all three Gram-positive strains together; type: cell-based
Protocol: as §1, §2, §3, §4, §5, §6
On the multiwell plate, a first series has been planned comprising the culture medium without the test compound of interest. […]

For “5,6-O-Dodecylidene-1,4-D-sorbitan 1e and 1e′ and 3,5-O-dodecylidene-1,4-D-sorbitan 1e′ and 1e′″ [Example 1e]”, the “Minimum inhibitory concentration (MIC) E. faecalis” value ([1]; Mueller-Hinton medium) was 0.03 mM, the “bacteriostatic concentration for S. aureus” value [2] was 0.12 mM and the “Minimum inhibitory concentration (MIC) S. aureus” value [2] was 0.12 mM. The “Minimum inhibitory concentration (MIC) L. monocytogenes” value [3] was 0.03 mM, the “bactericidal concentration for E. faecalis” value [4] was 0.03 mM and the “minimum bactericidal concentration (MBC) E. faecalis” value ([4]; Table 2, reseeded on agar) was 0.03 mM. The “bactericidal concentration for L. monocytogenes” value [5] was 0.03 mM, the “minimum bactericidal concentration (MBC) L. monocytogenes” value ([5]; Table 2, reseeded on agar) was 0.03 mM and the “CMC (critical micelle concentration)” value [6] was 0.034 mM.

In the case of `CCCCC1OCC([C@H]2OCC(O)C2O)O1` (stereo partly drawn) [Example 1a, 5,6-O-Pentylidene-1,4-D-sorbitan 1a and 1a′ and 3,5-O-pentylidene-1,4-D-sorbitan 1a″ and 1a′″], the MIC [1] is reported as > 4 mM, the MIC [2] is reported as > 4 mM and the MIC [3] is reported as > 4 mM.

With `CCCCCC1OCC([C@H]2OCC(O)C2O)O1` (stereo partly drawn) [Example 1b, 5,6-O-Hexylidene-1,4-D-sorbitan 1b and 1b′ and 3,5-O-hexylidene-1,4-D-sorbitan 1b″ and 1b′″] the MIC [1] was > 4 mM, the MIC [2] was > 4 mM and the MIC [3] was > 4 mM.

In the case of `CCCCCCCC1OCC([C@H]2OCC(O)C2O)O1` (stereo partly drawn) [Example 1c, 5,6-O-Octylidene-1,4-D-sorbitan 1c and 1c′ and 3,5-O-octylidene-1,4-D-sorbitan 1c″ and 1c′″], the MIC [1] is reported as > 4 mM, the MIC [2] is reported as > 4 mM and the MIC [3] is reported as > 4 mM.

For `CCCCCCCCCC1OCC([C@H]2OCC(O)C2O)O1` (stereo partly drawn) [Example 1d, 5,6-O-Decylidene-1,4-D-sorbitan 1d and 1d′ and 3,5-O-decylidene-1,4-D-sorbitan 1d′ and 1d′″], the MIC [1] was > 4 mM, the MIC [2] was > 4 mM and the MIC [3] was > 4 mM.

In the case of `CCCCCOCC(O)[C@H]1OCC(O)C1O` (stereo partly drawn) [Example 2a, Pentyl-1,4-D-sorbitan], the MIC [1] is reported as > 4 mM, the MIC [2] is reported as > 4 mM and the MIC [3] is reported as > 4 mM.

With `CCCCCCOCC(O)[C@H]1OCC(O)C1O` (stereo partly drawn) [Example 2b, Hexyl-1,4-D-sorbitan] the MIC [1] was > 4 mM, the MIC [2] was > 4 mM and the MIC [3] was > 4 mM.

For `CCCCCCCCOCC(O)[C@H]1OCC(O)C1O` (stereo partly drawn) [Example 2c, Octyl-1,4-D-sorbitan], the MIC [1] was > 4 mM, the MIC [2] was > 4 mM and the MIC [3] was > 4 mM.

In the case of `CCCCCCCCCCOCC(O)[C@H]1OCC(O)C1O` (stereo partly drawn) [Example 2d, Decyl-1,4-d-sorbitan], the MIC [1] is reported as > 4 mM, the MIC [2] is reported as > 4 mM and the MIC [3] is reported as > 4 mM.

With `CCCCCCCCCCCC(=O)OCC(O)CO` (stereo not drawn) [Monolaurin (ML), monolaurin, reference compound] the “Minimum inhibitory concentration (MIC) S. aureus” value [2] was 0.04 mM (≈ 11 µg/mL) and the “Minimum inhibitory concentration (MIC) L. monocytogenes” value [3] was 0.04 mM (≈ 11 µg/mL).

With `CCCCCCCCCCCC=O` [dodecanal, reference compound] the “MIC / inhibitory concentration on the bacterial strains studied” value [7] was > 4 mM.
